Laboratory results as given in patent US7977332B2, “Insecticidal N-(heteroarylalkyl)alkanediamine derivatives” (FMC Corporation, priority 2003, dated 2011).

System: tobacco budworm (Heliothis virescens [Fabricius])
Assay: surface-treated diet test against tobacco budworm
Format: in vivo
Conditions: 0.25 millimolar on the surface of the diet, second instar larvae, five-day exposure; for Percent Growth Inhibition: insect weight relative to untreated controls
Protocol: Candidate insecticides were evaluated for activity against the tobacco budworm (Heliothis virescens [Fabricius]) in a surface-treated diet test.
In this test one mL of molten (65-70° C.) wheat germ-based artificial diet was pipetted into each well of a four by six (24 well) multi-well plate (ID# 430345-15.5 mm dia.×17.6 mm deep; Corning Costar Corp., One Alewife Center, Cambridge, Mass. 02140). The diet was allowed to cool to ambient temperature before treatment with candidate insecticide.
For a determination of insecticidal activity, solutions of the candidate insecticides were prepared for testing using a Packard 204DT Multiprobe® Robotic System (Packard Instrument Company, 800 Research Parkway, Meriden, Conn. 06450), in which the robot first diluted a standard 50 millimolar DMSO solution of candidate insecticide with a 1:1 water/acetone solution (V/V) in a ratio of 1:7 stock solution to water/acetone. The robot subsequently pipetted 40 microliters of the so-prepared solution onto the surface of the diet in each of three wells in the 24 multi-well plate. The process was repeated with solutions of seven other candidate insecticides. Once treated, the contents of the multi-well plate were allowed to dry, leaving 0.25 millimoles of candidate insecticide on the surface of the diet, or a concentration of 0.25 millimolar. Appropriate untreated controls containing only DMSO on the diet surface were also included in this test.
For evaluations of the insecticidal activity of a candidate insecticide at varying rates of application, the test was established as described above using sub-multiples of the standard 50 millimolar DMSO solution of candidate insecticide. For example, the standard 50 millimolar solution was diluted by the robot with DMSO to give 5, 0.5, 0.05, 0.005, 0.0005 millimolar, or more dilute solutions of the candidate insecticide. In these evaluations there were six replicates of each rate of application placed on the surface of the diet in the 24 multi-well plate, for a total of four rates of application of candidate insecticide in each plate.
In each well of the test plate was placed one second instar tobacco budworm larvea, each weighing approximately five milligrams. After the larvae were placed in each well, the plate was sealed with clear polyfilm adhesive tape. The tape over each well was perforated to ensure an adequate air supply. The plates were then held in a growth chamber at 25° C. and 60% relative humidity for five days (light 14 hours/day).
After the five-day exposure period insecticidal activity for each rate of application of candidate insecticide was assessed as percent inhibition of insect weight relative to the weight of insects from untreated controls, and percent mortality when compared to the total number of insects infested.
The test compounds of formula I are identified by numbers that correspond to those in Table 1.

SMILES	Percent Growth Inhibition	Percent Mortality
C#CCCN(CCNC(=C[N+](=O)[O-])SC)Cc1ccc(Cl)nc1 [Compound 252]	100%	–
COC(=C[N+](=O)[O-])NCCN(Cc1ccc(Cl)nc1)Cc1ccc(Cl)nc1 [Compound 187]	50%	–
C=CCN(CCNC(=C[N+](=O)[O-])SC)Cc1ccc(Cl)nc1 [Compound 220]	100%	–
Cc1ccc(CSC(=C[N+](=O)[O-])NCCN(Cc2ccc(Cl)nc2)Cc2ccc(Cl)nc2)cc1 [Compound 321]	100%	–
CSC(=C[N+](=O)[O-])NCCN(CC#Cc1ccc(F)cc1)Cc1ccc(Cl)nc1 [Compound 302]	97%	–
CCN(CCNC(=C[N+](=O)[O-])OC)Cc1ccc(Cl)nc1 [Compound 41]	100%	–
CSC(=C[N+](=O)[O-])NCCN(Cc1ccc(Cl)nc1)CC1CCOC1 (centres unmarked) [Compound 14]	100%	–
CC#CCCN(CCNC(=C[N+](=O)[O-])SC)Cc1ccc(Cl)nc1 [Compound 254]	100%	–
C#CCN(CCNC(=C[N+](=O)[O-])SCC1CCCCC1)Cc1ccc(Cl)nc1 [Compound 257]	100%	–
COc1cccc(CSC(=C[N+](=O)[O-])NCCN(Cc2ccc(Cl)nc2)Cc2ccc(Cl)nc2)c1 [Compound 326]	100%	–
CSC(=C[N+](=O)[O-])NCCN(Cc1ccc(Cl)nc1)CC1CCCCO1 (centres unmarked) [Compound 15]	85%	–
CC(C)CSC(=C[N+](=O)[O-])NCCN(Cc1ccc(Cl)nc1)Cc1ccc(Cl)nc1 [Compound 202]	100%	–
C=CCN(CCNC(=N[N+](=O)[O-])SC)Cc1ccc(Cl)nc1 [Compound 231]	100%	–
O=[N+]([O-])C=C(NCCN(Cc1ccc(Cl)nc1)Cc1ccc(Cl)nc1)SCc1ccccc1C(F)(F)F [Compound 322]	100%	–
CSC(=C[N+](=O)[O-])NCCN(Cc1ccc(Cl)nc1)Cc1ccco1 [Compound 18]	100%	–
COc1ccc(CN(CCNC(=N[N+](=O)[O-])SCc2ccccc2)Cc2ccc(Cl)nc2)cc1 [Compound 310]	100%	–
CCOCCN(CCNC(=C[N+](=O)[O-])SC)Cc1ccc(Cl)nc1 [Compound 5]	100%	–
COC(=C[N+](=O)[O-])NCCN(CCCF)Cc1ccc(Cl)nc1 [Compound 1]	100%	–
O=[N+]([O-])C=C(NCCN(Cc1ccccc1)Cc1ccc(Cl)nc1)SCc1ccc(C(F)(F)F)cc1 [Compound 307]	100%	–
CSC(=C[N+](=O)[O-])NCCN(CCC(F)=C(F)F)Cc1ccc(Cl)nc1 [Compound 229]	96%	–

SMILES	Percent Growth Inhibition	Percent Mortality
C#CCN(CCNC(=C[N+](=O)[O-])OCC)Cc1ccc(Cl)nc1 [Compound 245]	100%	–
O=[N+]([O-])C=C(NCCN(Cc1ccc(Cl)nc1)Cc1ccc(Cl)nc1)SCc1cccc(C(F)(F)F)c1 [Compound 323]	100%	–
O=[N+]([O-])C=C(NCCN(Cc1ccc(Cl)nc1)Cc1ccc(Cl)nc1)SCC1CCCCC1 [Compound 203]	100%	–
COc1ccc(CN(CCNC(=N[N+](=O)[O-])SCc2ccc(Cl)cc2)Cc2ccc(Cl)nc2)cc1 [Compound 311]	100%	–
C#CCN(CCNC(=N[N+](=O)[O-])SC)Cc1ccc(Cl)nc1 [Compound 279]	100%	–
O=[N+]([O-])C=C(NCCN(Cc1ccc(Cl)nc1)Cc1ccc(Cl)nc1)SCc1cccc(Cl)c1 [Compound 315]	98%	–
CSC(=C[N+](=O)[O-])NCCN(CC=Cc1ccccc1)Cc1ccc(Cl)nc1 [Compound 230]	88%	–
CSC(=C[N+](=O)[O-])NCCN(CCC#Cc1ccc(Cl)cc1)Cc1ccc(Cl)nc1 [Compound 301]	100%	–
C#CCN(CCNC(=C[N+](=O)[O-])OCCOC)Cc1ccc(Cl)nc1 [Compound 246]	100%	–
CC#CCN(CCNC(=C[N+](=O)[O-])SC)Cc1ccc(Cl)nc1 [Compound 253]	100%	–
C=CCN(CCNC(=C[N+](=O)[O-])SCc1ccc(C(F)(F)F)cc1)Cc1ccc(Cl)nc1 [Compound 328]	98%	83%
CSC(=C[N+](=O)[O-])NCCN(Cc1cccnc1)Cc1ccc(Cl)nc1 [Compound 192]	92%	–
CSC(=C[N+](=O)[O-])NCCN(CC#Cc1cncnc1)Cc1ccc(Cl)nc1 [Compound 304]	61%	–
CSC(=C[N+](=O)[O-])NCCN(CCC(F)(F)F)Cc1ccc(Cl)nc1 [Compound 3]	96%	50%
C#CCN(CCNC(=C[N+](=O)[O-])SC)Cc1ccc(Cl)nc1 [Compound 248, {2-[((1Z)-1-methylthio-2-nitrovinyl)amino]ethyl}[(6-chloro(3-pyridyl)methyl]prop-2-ynylamine]	100%	100%
CSC(=C[N+](=O)[O-])NCCN(Cc1ccc(Cl)nc1)Cc1ccoc1 [Compound 19]	100%	–
CSC(=C[N+](=O)[O-])NCCN(Cc1ccc(Cl)nc1)Cc1ccsc1 [Compound 17]	99%	–
C=CCCN(CCNC(=C[N+](=O)[O-])SC)Cc1ccc(Cl)nc1 [Compound 222]	100%	–
COCCOCCN(CCNC(=C[N+](=O)[O-])SC)Cc1ccc(Cl)nc1 [Compound 7]	99%	–
COc1ccccc1CSC(=C[N+](=O)[O-])NCCN(Cc1ccc(Cl)nc1)Cc1ccc(Cl)nc1 [Compound 325]	100%	–

SMILES	Percent Growth Inhibition	Percent Mortality
O=[N+]([O-])C=C(NCCN(Cc1ccc(Cl)nc1)Cc1ccc(Cl)nc1)SCc1ccc(C(F)(F)F)cc1 [Compound 324]	100%	–
CSC(=C[N+](=O)[O-])NCCN(CCCF)Cc1ccc(Cl)nc1 [Compound 2]	100%	–
COc1ccc(CSC(=C[N+](=O)[O-])NCCN(Cc2ccc(Cl)nc2)Cc2ccc(Cl)nc2)cc1 [Compound 327]	100%	–
C=CCN(CCNC(=C[N+](=O)[O-])SCC1CCCCC1)Cc1ccc(Cl)nc1 [Compound 221]	100%	–
COCCOCCN(CCNC(=C[N+](=O)[O-])OCCOC)Cc1ccc(Cl)nc1 [Compound 8]	100%	–
C#CCN(CCN/C(=C/[N+](=O)[O-])OC)Cc1ccc(Cl)nc1 [Compound 244]	100%	83%
CC=CCN(CCNC(=C[N+](=O)[O-])SC)Cc1ccc(Cl)nc1 [Compound 223]	98%	–
C=CCN(CCNC(=C[N+](=O)[O-])OC)Cc1ccc(Cl)nc1 [Compound 242]	96%	83%
O=[N+]([O-])C=C(NCCN(Cc1ccc(Cl)nc1)Cc1ccc(Cl)nc1)SCc1ccccc1Cl [Compound 314]	100%	–
C#CCN(CCN1COCNC1=N[N+](=O)[O-])Cc1ccc(Cl)nc1 [Compound 558]	85%	–
CCCCCC#CCN(CCNC(=C[N+](=O)[O-])SC)Cc1ccc(Cl)nc1 [Compound 255]	88%	–
Cc1cccc(CSC(=C[N+](=O)[O-])NCCN(Cc2ccc(Cl)nc2)Cc2ccc(Cl)nc2)c1 [Compound 320]	96%	–
CSC(=C[N+](=O)[O-])NCCN(CC=CCl)Cc1ccc(Cl)nc1 [Compound 224]	100%	–
Cc1ccccc1CSC(=C[N+](=O)[O-])NCCN(Cc1ccc(Cl)nc1)Cc1ccc(Cl)nc1 [Compound 319]	10%	–
COCCOCCN(CCNC(=C[N+](=O)[O-])OC)Cc1ccc(Cl)nc1 [Compound 6]	95%	–
COCCN(CCNC(=C[N+](=O)[O-])SC)Cc1ccc(Cl)nc1 [Compound 4]	100%	–
O=[N+]([O-])C=C(NCCN(Cc1ccc(Cl)nc1)Cc1ccc(Cl)nc1)OCC1CCCCC1 [Compound 190]	100%	–
CC(C)COC(=C[N+](=O)[O-])NCCN(Cc1ccc(Cl)nc1)Cc1ccc(Cl)nc1 [Compound 189]	100%	–
CSC(=C[N+](=O)[O-])NCCN(CC=C(Cl)Cl)Cc1ccc(Cl)nc1 [Compound 228]	100%	–
C#CCCN(CCNC(=C[N+](=O)[O-])SCC1CCCCC1)Cc1ccc(Cl)nc1 [Compound 258]	100%	–
